Experimental data: patent US20250171437A1 (Agios Pharmaceuticals,Inc., priority 2022, published 2025)

Biological target: T1, human PAH with the R408W mutation (A375 R408W cells) (Homo sapiens, UniProt P00439, R408W)
T1 construct: expressed in transfected cells
T1 sequence (P00439 1-452 R408W): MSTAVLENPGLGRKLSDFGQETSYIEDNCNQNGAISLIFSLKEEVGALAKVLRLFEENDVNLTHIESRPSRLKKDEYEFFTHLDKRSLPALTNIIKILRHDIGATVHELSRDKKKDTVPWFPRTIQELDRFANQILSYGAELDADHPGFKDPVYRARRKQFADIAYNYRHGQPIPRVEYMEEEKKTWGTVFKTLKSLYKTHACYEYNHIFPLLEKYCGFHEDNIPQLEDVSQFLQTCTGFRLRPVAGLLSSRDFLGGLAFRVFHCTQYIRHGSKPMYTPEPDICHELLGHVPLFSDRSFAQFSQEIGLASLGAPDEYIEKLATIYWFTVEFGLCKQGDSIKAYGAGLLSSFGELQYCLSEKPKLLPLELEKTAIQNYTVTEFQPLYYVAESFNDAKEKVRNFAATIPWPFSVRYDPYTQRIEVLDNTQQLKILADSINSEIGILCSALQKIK
Test: Cell Based Phenylalanine Flux Assay
Conditions: A375 R408W cells; 24 hrs with compound, then 20 μM sepiapterin and 800 μM 13C9,15N-Phenylalanine for 4 hours; 13C-Tyrosine by LC-MS; average where tested multiple times
Summary of the method: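 Phenylalanine-to-tyrosine flux is measured in A375 cells carrying stable human R408W PAH. After 24 h compound exposure, 13C9,15N-Phe (800 μM) with sepiapterin (20 μM) is supplied for 4 h and media 13C-Tyr is read by LC-MS; AC50s are binned.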

SMILES | AC50 [nM]
Cc1cccc2nc([C@@H]3c4nc[nH]c4CCN3C(=O)c3ccnn3C)oc12 [Example 747, (S)-(1-methyl-1H-pyrazol-5-yl)(4-(7-methylbenzo[d]oxazol-2-yl)-6,7-dihydro-1H-imidazo[4,5-c]pyridin-5(4H)-yl)methanone] | ≤ 500
Cc1cccc2nc([C@H]3c4nc[nH]c4CCN3C(=O)c3ccnn3C)oc12 [Example 748, (R)-(1-methyl-1H-pyrazol-5-yl)(4-(7-methylbenzo[d]oxazol-2-yl)-6,7-dihydro-1H-imidazo[4,5-c]pyridin-5(4H)-yl)methanone] | 1000 to 5000
COc1cccc2nc([C@@H]3c4nc[nH]c4CCN3C(=O)c3ccnn3C)oc12 [Example 749, (S)-(4-(7-methoxybenzo[d]oxazol-2-yl)-6,7-dihydro-1H-imidazo[4,5-c]pyridin-5(4H)-yl)(1-methyl-1H-pyrazol-5-yl)methanone] | ≤ 500
COc1cccc2nc([C@H]3c4nc[nH]c4CCN3C(=O)c3ccnn3C)oc12 [Example 750, (R)-(4-(7-methoxybenzo[d]oxazol-2-yl)-6,7-dihydro-1H-imidazo[4,5-c]pyridin-5(4H)-yl)(1-methyl-1H-pyrazol-5-yl)methanone] | 1000 to 5000
CC(C)n1nccc1C(=O)N1CCc2[nH]cnc2[C@@H]1c1nc2ccccc2o1 [Example 751, (R)-(4-(benzo[d]oxazol-2-yl)-6,7-dihydro-1H-imidazo[4,5-c]pyridin-5(4H)-yl)(1-isopropyl-1H-pyrazol-5-yl)methanone] | 1000 to 5000
CC(C)n1nccc1C(=O)N1CCc2[nH]cnc2[C@H]1c1nc2ccccc2o1 [Example 752, (S)-(4-(benzo[d]oxazol-2-yl)-6,7-dihydro-1H-imidazo[4,5-c]pyridin-5(4H)-yl)(1-isopropyl-1H-pyrazol-5-yl)methanone] | ≤ 500
CC(C)(C)c1nc(C(F)F)c(C(=O)N2CCc3[nH]cnc3[C@H]2c2nc3cc(F)ccc3o2)o1 [Example 753, (S)-(2-(tert-butyl)-4-(difluoromethyl)oxazol-5-yl)(4-(5-fluorobenzo[d]oxazol-2-yl)-6,7-dihydro-1H-imidazo[4,5-c]pyridin-5(4H)-yl)methanone] | ≤ 500
CC(C)(C)c1nc(C(F)F)c(C(=O)N2CCc3[nH]cnc3[C@@H]2c2nc3cc(F)ccc3o2)o1 [Example 754, (R)-(2-(tert-butyl)-4-(difluoromethyl)oxazol-5-yl)(4-(5-fluorobenzo[d]oxazol-2-yl)-6,7-dihydro-1H-imidazo[4,5-c]pyridin-5(4H)-yl)methanone] | 1000 to 5000
Cc1ccc2oc([C@@H]3c4nc[nH]c4CCN3C(=O)c3oc(-c4ccn(C)n4)nc3C(F)F)nc2c1 [Example 755, (S)-(4-(difluoromethyl)-2-(1-methyl-1H-pyrazol-3-yl)oxazol-5-yl)(4-(5-methylbenzo[d]oxazol-2-yl)-6,7-dihydro-1H-imidazo[4,5-c]pyridin-5(4H)-yl)methanone] | ≤ 500
Cc1ccc2oc([C@H]3c4nc[nH]c4CCN3C(=O)c3oc(-c4ccn(C)n4)nc3C(F)F)nc2c1 [Example 756, (R)-(4-(difluoromethyl)-2-(1-methyl-1H-pyrazol-3-yl)oxazol-5-yl)(4-(5-methylbenzo[d]oxazol-2-yl)-6,7-dihydro-1H-imidazo[4,5-c]pyridin-5(4H)-yl)methanone] | 1000 to 5000
Cc1ccc2oc([C@H]3c4nc[nH]c4CCN3C(=O)c3oc(-c4cncn4C)nc3C(F)F)nc2c1 [Example 757, (R)-(4-(difluoromethyl)-2-(1-methyl-1H-imidazol-5-yl)oxazol-5-yl)(4-(5-methylbenzo[d]oxazol-2-yl)-6,7-dihydro-1H-imidazo[4,5-c]pyridin-5(4H)-yl)methanone] | 1000 to 5000
Cc1ccc2oc([C@@H]3c4nc[nH]c4CCN3C(=O)c3oc(-c4cncn4C)nc3C(F)F)nc2c1 [Example 758, (S)-(4-(difluoromethyl)-2-(1-methyl-1H-imidazol-5-yl)oxazol-5-yl)(4-(5-methylbenzo[d]oxazol-2-yl)-6,7-dihydro-1H-imidazo[4,5-c]pyridin-5(4H)-yl)methanone] | ≤ 500
Cn1cc(-c2nc(C(F)F)c(C(=O)N3CCc4[nH]cnc4[C@@H]3c3nc4ccccc4o3)o2)cn1 [Example 759, (R)-(4-(benzo[d]oxazol-2-yl)-6,7-dihydro-1H-imidazo[4,5-c]pyridin-5(4H)-yl)(4-(difluoromethyl)-2-(1-methyl-1H-pyrazol-4-yl)oxazol-5-yl)methanone] | 1000 to 5000
Cn1cc(-c2nc(C(F)F)c(C(=O)N3CCc4[nH]cnc4[C@H]3c3nc4ccccc4o3)o2)cn1 [Example 760, (S)-(4-(benzo[d]oxazol-2-yl)-6,7-dihydro-1H-imidazo[4,5-c]pyridin-5(4H)-yl)(4-(difluoromethyl)-2-(1-methyl-1H-pyrazol-4-yl)oxazol-5-yl)methanone] | ≤ 500

The next lines start with the values.

AC50 [nM] | SMILES
≤ 500 | Cn1ccc(-c2nc(C(F)F)c(C(=O)N3CCc4[nH]cnc4[C@H]3c3nc4ccccc4o3)o2)n1 [Example 761, (S)-(4-(benzo[d]oxazol-2-yl)-6,7-dihydro-1H-imidazo[4,5-c]pyridin-5(4H)-yl)(4-(difluoromethyl)-2-(1-methyl-1H-pyrazol-3-yl)oxazol-5-yl)methanone]
1000 to 5000 | Cn1ccc(-c2nc(C(F)F)c(C(=O)N3CCc4[nH]cnc4[C@@H]3c3nc4ccccc4o3)o2)n1 [Example 762, (R)-(4-(benzo[d]oxazol-2-yl)-6,7-dihydro-1H-imidazo[4,5-c]pyridin-5(4H)-yl)(4-(difluoromethyl)-2-(1-methyl-1H-pyrazol-3-yl)oxazol-5-yl)methanone]
1000 to 5000 | Cn1cncc1-c1nc(C(F)F)c(C(=O)N2CCc3[nH]cnc3[C@@H]2c2nc3ccccc3o2)o1 [Example 763, (R)-(4-(benzo[d]oxazol-2-yl)-6,7-dihydro-1H-imidazo[4,5-c]pyridin-5(4H)-yl)(4-(difluoromethyl)-2-(1-methyl-1H-imidazol-5-yl)oxazol-5-yl)methanone]
≤ 500 | Cn1cncc1-c1nc(C(F)F)c(C(=O)N2CCc3[nH]cnc3[C@H]2c2nc3ccccc3o2)o1 [Example 764, (S)-(4-(benzo[d]oxazol-2-yl)-6,7-dihydro-1H-imidazo[4,5-c]pyridin-5(4H)-yl)(4-(difluoromethyl)-2-(1-methyl-1H-imidazol-5-yl)oxazol-5-yl)methanone]
≤ 500 | COc1cccc2nc([C@@H]3c4nc[nH]c4CCN3C(=O)c3ccnn3C(C)C)oc12 [Example 765, (S)-(1-isopropyl-1H-pyrazol-5-yl)(4-(7-methoxybenzo[d]oxazol-2-yl)-6,7-dihydro-1H-imidazo[4,5-c]pyridin-5(4H)-yl)methanone]
≤ 500 | COc1cccc2nc([C@@H]3c4nc[nH]c4CCN3C(=O)c3ccnn3C3CC3)oc12 [Example 767, (S)-(1-cyclopropyl-1H-pyrazol-5-yl)(4-(7-methoxybenzo[d]oxazol-2-yl)-6,7-dihydro-1H-imidazo[4,5-c]pyridin-5(4H)-yl)methanone]
1000 to 5000 | Cc1cc(C(=O)N2CCc3[nH]cnc3[C@H]2c2nc3cccc(F)c3o2)n(C)n1 [Example 769, (S)-(1,3-dimethyl-1H-pyrazol-5-yl)(4-(7-fluorobenzo[d]oxazol-2-yl)-6,7-dihydro-1H-imidazo[4,5-c]pyridin-5(4H)-yl)methanone]
1000 to 5000 | Cc1cc(C(=O)N2CCc3[nH]cnc3[C@@H]2c2nc3cccc(F)c3o2)n(C)n1 [Example 770, (R)-(1,3-dimethyl-1H-pyrazol-5-yl)(4-(7-fluorobenzo[d]oxazol-2-yl)-6,7-dihydro-1H-imidazo[4,5-c]pyridin-5(4H)-yl)methanone]
≤ 500 | Cc1ccc2oc([C@@H]3c4nc[nH]c4CCN3C(=O)c3oc(-c4cnn(C)c4)nc3C(F)F)nc2c1 [Example 771, (S)-(4-(difluoromethyl)-2-(1-methyl-1H-pyrazol-4-yl)oxazol-5-yl)(4-(5-methylbenzo[d]oxazol-2-yl)-6,7-dihydro-1H-imidazo[4,5-c]pyridin-5(4H)-yl)methanone]
500 to 1000 | Cc1ccc2oc([C@H]3c4nc[nH]c4CCN3C(=O)c3oc(-c4cnn(C)c4)nc3C(F)F)nc2c1 [Example 772, (R)-(4-(difluoromethyl)-2-(1-methyl-1H-pyrazol-4-yl)oxazol-5-yl)(4-(5-methylbenzo[d]oxazol-2-yl)-6,7-dihydro-1H-imidazo[4,5-c]pyridin-5(4H)-yl)methanone]
≤ 500 | O=C(c1oc(-c2ccncn2)nc1C(F)F)N1CCc2[nH]cnc2[C@H]1c1nc2cccc(F)c2o1 [Example 773, (S)-(4-(difluoromethyl)-2-(pyrimidin-4-yl)oxazol-5-yl)(4-(7-fluorobenzo[d]oxazol-2-yl)-6,7-dihydro-1H-imidazo[4,5-c]pyridin-5(4H)-yl)methanone]
≤ 500 | O=C(c1oc(-c2ccncn2)nc1C(F)F)N1CCc2[nH]cnc2[C@@H]1c1nc2cccc(F)c2o1 [Example 774, (R)-(4-(difluoromethyl)-2-(pyrimidin-4-yl)oxazol-5-yl)(4-(7-fluorobenzo[d]oxazol-2-yl)-6,7-dihydro-1H-imidazo[4,5-c]pyridin-5(4H)-yl)methanone]
500 to 1000 | COc1cccc2nc([C@@H]3c4nc[nH]c4CCN3C(=O)c3ncnn3C)oc12 [Example 775, (S)-(4-(7-methoxybenzo[d]oxazol-2-yl)-6,7-dihydro-1H-imidazo[4,5-c]pyridin-5(4H)-yl)(1-methyl-1H-1,2,4-triazol-5-yl)methanone]
